Results as given in ChEMBL document CHEMBL1201862, “PubChem BioAssay data set” (2004).
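Compound exposure: 48 hours, 5 concentrations, 96-well plates. Abbreviation: GI50, concentration required for 50% inhibition of growth.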 Active and inactive are the calls of the source. No stated cut-off is given here; in the data, active = GI50 up to about 1.1 µM and inactive = higher.

Columns and labels:
Test in all cases: NCI tumour cell line growth inhibition, 48 h
A549 = tested on: A549
U-251 = tested on: U-251
HCT-116 = tested on: HCT-116
ACHN = tested on: ACHN
HOP-62 = tested on: HOP-62
KM12 = tested on: KM12
DU-145 = tested on: DU-145
NCI/ADR-RES = tested on: NCI/ADR-RES
EKVX = tested on: EKVX
UACC-257 = tested on: UACC-257
PC-3 = tested on: PC-3
OVCAR-3 = tested on: OVCAR-3
IGROV-1 = tested on: IGROV-1
BT-549 = tested on: BT-549
SK-MEL-2 = tested on: SK-MEL-2
SK-MEL-28 = tested on: SK-MEL-28
TK-10 = tested on: TK-10
RPMI-8226 = tested on: RPMI-8226
SF-539 = tested on: SF-539
SW-620 = tested on: SW-620
COLO 205 = tested on: COLO 205
SR = tested on: SR
NCI-H460 = tested on: NCI-H460
K562 = tested on: K562
OVCAR-8 = tested on: OVCAR-8
NCI-H226 = tested on: NCI-H226
MOLT-4 = tested on: MOLT-4
UACC-62 = tested on: UACC-62
CAKI-1 = tested on: CAKI-1
OVCAR-5 = tested on: OVCAR-5
786-0 = tested on: 786-0
SK-MEL-5 = tested on: SK-MEL-5
M14 = tested on: M14
T47D = tested on: T47D
MDA-N = tested on: MDA-N
MDA-MB-435 = tested on: MDA-MB-435
SN12C = tested on: SN12C
RXF 393 = tested on: RXF 393
NCI-H23 = tested on: NCI-H23
SF-295 = tested on: SF-295
MCF7 = tested on: MCF7
A498 = tested on: A498
SNB-19 = tested on: SNB-19
Hs-578T = tested on: Hs-578T
MDA-MB-231 = tested on: MDA-MB-231
HL-60 = tested on: HL-60
UO-31 = tested on: UO-31
HCT-15 = tested on: HCT-15
HT-29 = tested on: HT-29
SNB-75 = tested on: SNB-75
SF-268 = tested on: SF-268
CCRF-CEM = tested on: CCRF-CEM
Malme-3M = tested on: Malme-3M
NCI-H522 = tested on: NCI-H522
HCC 2998 = tested on: HCC 2998
HOP-92 = tested on: HOP-92
SK-OV-3 = tested on: SK-OV-3
OVCAR-4 = tested on: OVCAR-4

For `Cn1ncc2[nH]cnc2c1=S`, the GI50 (A549) was > 100 µM (inactive), the GI50 (U-251) was > 100 µM (inactive) and the GI50 (HCT-116) was > 100 µM (inactive). For the same compound, the GI50 (ACHN) was > 100 µM (inactive), the GI50 (HOP-62) was > 100 µM (inactive) and the GI50 (KM12) was > 100 µM (inactive). For the same compound, the GI50 (DU-145) was > 100 µM (inactive), the GI50 (NCI/ADR-RES) was > 100 µM (inactive) and the GI50 (EKVX) was > 100 µM (inactive). For the same compound, the GI50 (UACC-257) was > 100 µM (inactive), the GI50 (PC-3) was > 100 µM (inactive) and the GI50 (OVCAR-3) was > 100 µM (inactive). The GI50 (IGROV-1) was > 100 µM (inactive), the GI50 (BT-549) was > 100 µM (inactive) and the GI50 (SK-MEL-2) was > 100 µM (inactive). For the same compound, the GI50 (SK-MEL-28) was > 100 µM (inactive), the GI50 (TK-10) was > 100 µM (inactive) and the GI50 (RPMI-8226) was 34.8 µM (inactive). For the same compound, the GI50 (SF-539) was > 100 µM (inactive), the GI50 (SW-620) was > 100 µM (inactive) and the GI50 (COLO 205) was 47.5 µM (inactive). For the same compound, the GI50 (SR) was 26.7 µM (inactive), the GI50 (NCI-H460) was > 100 µM (inactive) and the GI50 (K562) was 50.7 µM (inactive). For the same compound, the GI50 (OVCAR-8) was > 100 µM (inactive), the GI50 (NCI-H226) was > 100 µM (inactive) and the GI50 (MOLT-4) was 43.8 µM (inactive). For the same compound, the GI50 (UACC-62) was > 100 µM (inactive), the GI50 (CAKI-1) was > 100 µM (inactive) and the GI50 (OVCAR-5) was > 100 µM (inactive). The GI50 (786-0) was > 100 µM (inactive), the GI50 (SK-MEL-5) was 82.4 µM (inactive) and the GI50 (M14) was > 100 µM (inactive). The GI50 (T47D) was > 100 µM (inactive), the GI50 (MDA-N) was > 100 µM (inactive) and the GI50 (MDA-MB-435) was > 100 µM (inactive). The GI50 (SN12C) was > 100 µM (inactive), the GI50 (RXF 393) was > 100 µM (inactive) and the GI50 (NCI-H23) was > 100 µM (inactive). The GI50 (SF-295) was > 100 µM (inactive), the GI50 (MCF7) was 79.3 µM (inactive) and the GI50 (A498) was > 100 µM (inactive). The GI50 (SNB-19) was > 100 µM (inactive), the GI50 (Hs-578T) was > 100 µM (inactive) and the GI50 (MDA-MB-231) was > 100 µM (inactive). The GI50 (HL-60) was 0.541 µM (active), the GI50 (UO-31) was > 100 µM (inactive) and the GI50 (HCT-15) was > 100 µM. For the same compound, the GI50 (HT-29) was 57.7 µM (inactive), the GI50 (SNB-75) was 86.1 µM (inactive) and the GI50 (SF-268) was > 100 µM (inactive). For the same compound, the GI50 (CCRF-CEM) was 19.8 µM (inactive).
With `CC(=O)Oc1cc2c(c3ncccc13)OC(C)(C)C2` the GI50 (A549) was 12.9 µM (inactive), the GI50 (U-251) was 12.4 µM (inactive) and the GI50 (HCT-116) was 13.4 µM (inactive). For the same compound, the GI50 (ACHN) was 11.1 µM (inactive), the GI50 (Malme-3M) was 11 µM (inactive) and the GI50 (HOP-62) was 5.85 µM (inactive). The GI50 (NCI-H522) was 1.17 µM (inactive), the GI50 (KM12) was 13.4 µM (inactive) and the GI50 (DU-145) was 15.1 µM (inactive). For the same compound, the GI50 (NCI/ADR-RES) was 2.95 µM (inactive), the GI50 (HCC 2998) was 15.5 µM (inactive) and the GI50 (UACC-257) was 15.5 µM (inactive). For the same compound, the GI50 (HOP-92) was 13 µM (inactive), the GI50 (PC-3) was 20.7 µM (inactive) and the GI50 (OVCAR-3) was 11.5 µM (inactive). For the same compound, the GI50 (IGROV-1) was 2.29 µM (inactive), the GI50 (BT-549) was > 100 µM (inactive) and the GI50 (SK-MEL-2) was 17.6 µM (inactive). For the same compound, the GI50 (SK-MEL-28) was 15.2 µM (inactive), the GI50 (TK-10) was 12.8 µM (inactive) and the GI50 (RPMI-8226) was 20.3 µM (inactive). For the same compound, the GI50 (SF-539) was 12.1 µM (inactive), the GI50 (SW-620) was 13.3 µM (inactive) and the GI50 (COLO 205) was 18.1 µM (inactive). For the same compound, the GI50 (SR) was 1.54 µM (inactive), the GI50 (NCI-H460) was 8.71 µM (inactive) and the GI50 (K562) was 6.19 µM (inactive). For the same compound, the GI50 (OVCAR-8) was 14.2 µM (inactive), the GI50 (NCI-H226) was 16.3 µM (inactive) and the GI50 (SK-OV-3) was 27.2 µM (inactive). For the same compound, the GI50 (MOLT-4) was 12.3 µM (inactive), the GI50 (UACC-62) was > 100 µM (inactive) and the GI50 (CAKI-1) was 7.4 µM (inactive). The GI50 (OVCAR-5) was 14.8 µM (inactive), the GI50 (786-0) was 14.6 µM (inactive) and the GI50 (SK-MEL-5) was 12.5 µM (inactive). For the same compound, the GI50 (M14) was 12.8 µM (inactive), the GI50 (T47D) was 17.1 µM (inactive) and the GI50 (MDA-N) was 2.94 µM (inactive). For the same compound, the GI50 (MDA-MB-435) was 3.33 µM (inactive), the GI50 (SN12C) was 12.2 µM (inactive) and the GI50 (RXF 393) was 12.4 µM (inactive). For the same compound, the GI50 (NCI-H23) was > 100 µM (inactive), the GI50 (OVCAR-4) was 12.1 µM (inactive) and the GI50 (SF-295) was 13 µM (inactive). The GI50 (MCF7) was 16.7 µM (inactive), the GI50 (A498) was 16.9 µM (inactive) and the GI50 (Hs-578T) was 5.12 µM (inactive). For the same compound, the GI50 (MDA-MB-231) was 10.1 µM (inactive), the GI50 (UO-31) was > 100 µM (inactive) and the GI50 (HCT-15) was 11.8 µM. The GI50 (HT-29) was 15.7 µM (inactive), the GI50 (SNB-75) was 2.06 µM (inactive) and the GI50 (SF-268) was 10.8 µM (inactive). The GI50 (CCRF-CEM) was 10.5 µM (inactive).
